Source: patent US8557796B2, “Substituted 1-oxa-2,8-diaza-spiro [4,5] dec-2-ene derivatives and related treatment methods” (Gruenenthal GmbH, priority 2001, dated 2013)
Blank lines part the entries; values can stand above or below the compound they belong to.

Assays:
NA transporter = molecular target: T1, NA transporter (Rattus norvegicus, UniProt Q9WTR4); assay: Noradrenalin uptake inhibition (NA-uptake) in synaptosomes; assay type: biochemical; details: rat hypothalamus synaptosomes
T1 construct: synaptosomes from rat brain regions were freshly isolated; from tissue; host or cells: P2 synaptosome fraction from hypothalamus of male rat brain
From the text: Tests on Noradrenalin Uptake Inhibition (NA-Uptake Inhibition)
In order to be able to carry out these in vitro studies, synaptosomes from rat brain regions were freshly isolated.

5HT-uptake = molecular target: T2, 5HT-uptake (Rattus norvegicus, UniProt P31652); assay: Serotonin uptake inhibition (5HT uptake) in synaptosomes; assay type: biochemical; details: rat brain synaptosomes
T2 construct: synaptosomes from rat brain regions were freshly isolated; from tissue; host or cells: P2 synaptosome fraction from rat brain regions
T2 sequence (P31652 whole entry): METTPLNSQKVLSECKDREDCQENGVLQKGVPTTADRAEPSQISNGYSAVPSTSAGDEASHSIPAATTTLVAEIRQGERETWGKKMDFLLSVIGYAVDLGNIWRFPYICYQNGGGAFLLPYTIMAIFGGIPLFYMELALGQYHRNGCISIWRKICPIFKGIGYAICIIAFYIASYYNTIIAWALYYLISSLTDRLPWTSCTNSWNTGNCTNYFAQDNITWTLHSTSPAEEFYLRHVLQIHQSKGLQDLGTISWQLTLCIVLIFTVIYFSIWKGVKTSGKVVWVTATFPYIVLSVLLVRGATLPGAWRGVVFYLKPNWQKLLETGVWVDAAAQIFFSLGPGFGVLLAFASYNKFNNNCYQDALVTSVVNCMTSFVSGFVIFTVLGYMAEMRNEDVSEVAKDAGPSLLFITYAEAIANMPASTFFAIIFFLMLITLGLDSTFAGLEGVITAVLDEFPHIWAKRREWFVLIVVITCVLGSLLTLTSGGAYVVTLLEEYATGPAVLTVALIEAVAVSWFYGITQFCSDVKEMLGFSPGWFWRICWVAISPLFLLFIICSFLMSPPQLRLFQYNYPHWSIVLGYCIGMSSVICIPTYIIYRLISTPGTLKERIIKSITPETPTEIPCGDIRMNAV

T1 sequence (Q9WTR4 1-597): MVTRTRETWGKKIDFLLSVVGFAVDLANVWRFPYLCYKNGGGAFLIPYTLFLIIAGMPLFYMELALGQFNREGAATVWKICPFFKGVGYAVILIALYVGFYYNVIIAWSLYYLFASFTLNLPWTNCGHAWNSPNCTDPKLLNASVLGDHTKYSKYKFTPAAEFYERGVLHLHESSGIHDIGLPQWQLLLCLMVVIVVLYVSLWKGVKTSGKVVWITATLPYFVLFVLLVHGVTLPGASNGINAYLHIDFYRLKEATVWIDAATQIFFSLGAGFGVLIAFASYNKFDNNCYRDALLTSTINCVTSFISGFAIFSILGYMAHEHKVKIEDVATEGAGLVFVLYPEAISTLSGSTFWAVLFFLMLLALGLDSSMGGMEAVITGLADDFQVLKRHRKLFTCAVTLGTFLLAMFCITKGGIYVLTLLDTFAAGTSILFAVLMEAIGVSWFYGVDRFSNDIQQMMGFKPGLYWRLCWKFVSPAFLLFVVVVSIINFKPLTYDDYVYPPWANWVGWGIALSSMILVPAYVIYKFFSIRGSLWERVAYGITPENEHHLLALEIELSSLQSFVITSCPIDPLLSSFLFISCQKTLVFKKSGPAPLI

Compound: CN(C)S(=O)(=O)N1CCC2(CC1)CC(C(=O)N1CCN(Cc3ccc4ccccc4c3)CC1)=NO2 [Example 65, 3-(4-naphthalen-2-ylmethyl-piperazine-1-carbonyl)-1-oxa-2,8-diaza-spiro[4,5]dec-2-ene-8-sulphonic acid dimethylamide]
inhibition at 10 µM (NA transporter): 63% | inhibition at 10 µM (5HT-uptake): 81%

Compound: Cc1ccc(S(=O)(=O)N2CCC3(CC2)CC(C(=O)NC2CCCC2OCc2ccccc2)=NO3)cc1 (stereo not shown) [Example 67, 8-(toluene-4-sulphonyl)-1-oxa-2,8-diaza-spiro[4,5]dec-2-ene-3-carboxylic acid (2-benzyloxy-cyclopentyl)-amide]
NA-uptake, 10 μM, % inhibition (NA transporter; 10 µM): 59% | inhibition at 10 µM (5HT-uptake): 58%

Compound: Cc1ccc(S(=O)(=O)N2CCC3(CC2)CC(C(=O)N2CCN(c4ccc(C)cc4C)CC2)=NO3)cc1 [Example 33, [4-(2,4-dimethyl-phenyl)-piperazin-l-yl]-[8-(toluene-4-sulphonyl)-1-oxa-2,8-diazaspiro[4,5]dec-2-en-3-yl]methanone]
NA-uptake, 10 μM, % inhibition (NA transporter): 42% | 5HT-uptake, 10 μM, % inhibition (5HT-uptake): 57%

Compound: Cc1ccc(S(=O)(=O)N2CCC3(CC2)CC(C(=O)NC2CCCC2OCc2ccccc2)=NO3)cc1 (stereo not shown) [Example 73, 8-(toluene-4-sulphonyl)-1-oxa-2,8-diaza-spiro[4,5]dec-2-ene-3-carboxylic acid (2-benzyloxy-cyclopentyl)-amide]
NA-uptake, 10 μM, % inhibition (NA transporter; 10 µM): 93% | 5HT-uptake, 10 μM, % inhibition (5HT-uptake; 10 µM): 46%

inhibition at 10 µM (NA transporter): 43% | inhibition at 10 µM (5HT-uptake): 46%
Compound: CN(Cc1cccnc1)C(=O)C1=NOC2(CCN(S(=O)(=O)c3cccc(C(F)(F)F)c3)CC2)C1 [Example 101, 8-(3-trifluoromethyl-benzenesulphonyl)-1-oxa-2,8-diaza-spiro[4,5]dec-2-ene-3 carboxylic acid methyl-pyridin-3-ylmethyl-amide]

Compound: CC(NC(=O)C1=NOC2(CCN(S(=O)(=O)c3cccs3)CC2)C1)c1cccc2c1OCCO2 (stereo not shown) [Example 84, 8-(thiophene-2-sulphonyl)-1-oxa-2,8-diaza-spiro[4,5]dec-2-ene-3-carboxylic acid [1-(2,3-dihydro-benzo[1,4]dioxin-5-yl)-ethyl]-amide]
inhibition at 10 µM (NA transporter): 67% | inhibition at 10 µM (5HT-uptake): 68%

Compound: Cc1ccc(F)cc1S(=O)(=O)N1CCC2(CC1)CC(C(=O)NCc1cccs1)=NO2 [Example 150, 8-(5-fluoro-2-methyl-benzenesulphonyl)-1-oxa-2,8-diaza-spiro[4,5]dec-2-ene-3-carboxylic acid (thiophen-2-ylmethyl)-amide]
inhibition at 10 µM (NA transporter): 48% | inhibition at 10 µM (5HT-uptake): 70%

Compound: Cc1ccc(S(=O)(=O)N2CCC3(CC2)CC(C(=O)NCCc2ccc(Cl)c(Cl)c2)=NO3)cc1 [Example 9]
NA-uptake, 10 μM, % inhibition (NA transporter): 77% | 5HT-uptake, 10 μM, % inhibition (5HT-uptake): 75%

Compound: COc1cccc(CN2CCC(NC(=O)C3=NOC4(CCN(S(=O)(=O)c5cc(Cl)ccc5Cl)CC4)C3)C2)c1 (stereo not shown) [Example 64]
NA-uptake, 10 μM, % inhibition (NA transporter): 61% | 5HT-uptake, 10 μM, % inhibition (5HT-uptake): 61%

Compound: CC1CCCCN1CCCNC(=O)C1=NOC2(CCN(S(=O)(=O)c3cc(Cl)ccc3Cl)CC2)C1 (stereo not shown) [Example 15, 8-(2,5-dichloro-benzenesulphonyl)-1-oxa-2,8-diaza-spiro[4,5]dec-2-ene-3-carboxylic acid[3-(2-methyl-piperidin-1-yl)-propyl]-amide]
NA-uptake, 10 μM, % inhibition (NA transporter): 41% | 5HT-uptake, 10 μM, % inhibition (5HT-uptake): 55%

inhibition at 10 µM (NA transporter): 40% | inhibition at 10 µM (5HT-uptake): 56%
Compound: Cc1ccc(CNC(=O)C2=NOC3(CCN(C(=O)c4ccc(Br)cc4)CC3)C2)o1 [Example 109, 8-(4-bromo-benzoyl)-1-oxa-2,8-diaza-spiro[4,5]dec-2-ene-3-carboxylic acid (5-methyl-furan-2-ylmethyl)-amide]

Compound: CCOC(=O)N1CCC(NC(=O)C2=NOC3(CCN(C(=O)C4CC4c4ccccc4)CC3)C2)CC1 (stereo not shown) [Example 55, 4-{[8-(2-phenyl-cyclopropanecarbonyl)-1-oxa-2,8-diaza-spiro[4,5]dec-2-ene-3-carbonyl]-amino}-piperidine-1-carboxylic acid ethyl ester]
inhibition at 10 µM (NA transporter): 50% | inhibition at 10 µM (5HT-uptake): 65%

Compound: CN(C)S(=O)(=O)N1CCC2(CC1)CC(C(=O)N1CCN(C3CCCCCC3)CC1)=NO2 [Example 144, 3-(4-cycloheptyl-piperazine-1-carbonyl)-1-oxa-2,8-diaza-spiro[4,5]dec-2-ene-8 sulphonic acid dimethylamide]
inhibition at 10 µM (NA transporter): 56% | inhibition at 10 µM (5HT-uptake): 41%

Compound: O=C(C1=NOC2(CCN(S(=O)(=O)Cc3ccccc3)CC2)C1)N1CCN(CCCc2ccccc2)CC1 [Example 69]
NA-uptake, 10 μM, % inhibition (NA transporter): 56% | 5HT-uptake, 10 μM, % inhibition (5HT-uptake): 63%

Compound: O=C(NCc1cccs1)C1=NOC2(CCN(S(=O)(=O)c3ccccc3Cl)CC2)C1 [Example 156, 8-(2-chloro-benzenesulphonyl)-1-oxa-2,8-diaza-spiro[4,5]dec-2-ene-3-carboxylic acid (thiophen-2-ylmethyl)-amide]
inhibition at 10 µM (NA transporter): 60% | inhibition at 10 µM (5HT-uptake): 41%

Compound: Cc1ccc(F)cc1S(=O)(=O)N1CCC2(CC1)CC(C(=O)NCCN(C)C)=NO2 [Example 37, 8-(5-fluoro-2-methyl-benzenesulphonyl)-1-oxa-2,8-diaza-spiro[4,5]dec-2-ene-3-carboxylic acid (2-dimethylamino-ethyl)-amide]
inhibition at 10 µM (NA transporter): 52% | inhibition at 10 µM (5HT-uptake): 70%

inhibition at 10 µM (5HT-uptake): 40%
Compound: CCN(CC)c1ccc(C(=O)NNC(=O)C2=NOC3(CCN(S(=O)(=O)c4cccs4)CC3)C2)cc1 [Example 10, 4-diethylamino-benzoic acid N′-[8-(thiophene-2-sulphonyl)-1-oxa-2,8-diaza-spiro[4,5]dec-2-ene-3-carbonyl]-hydrazide]

5HT-uptake, 10 μM, % inhibition (5HT-uptake): 44%
Compound: CCSCCNC(=O)C1=NOC2(CCN(S(=O)(=O)N(C)C)CC2)C1 [Example 161]

inhibition at 10 µM (5HT-uptake): 42%
Compound: CN(C)S(=O)(=O)N1CCC2(CC1)CC(C(=O)NCc1ccc(C(F)(F)F)c(F)c1)=NO2 [Example 72, 8-dimethylsulphamoyl-1-oxa-2,8-diaza-spiro[4,5]dec-2-ene-3-carboxylic acid 3-fluoro-4-trifluoromethyl-benzylamide]

inhibition at 10 µM (5HT-uptake): 42%
Compound: Cc1cnc(C(=O)N2CCN(C(=O)C3=NOC4(CCN(S(=O)(=O)c5ccc(F)cc5)CC4)C3)CC2)cn1 [Example 76, [8-(4-fluoro-benzenesulphonyl)-1-oxa-2,8-diaza-spiro[4,5]dec-2-ene-3-yl]-[4-(5-methyl-pyrazine-2-carbonyl)-piperazin-1-yl]-methanone]

Compound: CCOP(=O)(Cc1ccc(NC(=O)C2=NOC3(CCN(S(=O)(=O)Cc4ccccc4)CC3)C2)cc1)OCC [Example 2]
5HT-uptake, 10 μM, % inhibition (5HT-uptake): 55%

5HT-uptake, 10 μM, % inhibition (5HT-uptake): 45%
Compound: COc1ccc(C(=O)N2CCC3(CC2)CC(C(=O)NCc2ccc(C)o2)=NO3)cc1 [Example 59]

inhibition at 10 µM (5HT-uptake): 42%
Compound: CCCCCC(=O)N1CCC2(CC1)CC(C(=O)NCC1CC1)=NO2 [Example 158, 8-hexanoyl-1-oxa-2,8-diaza-spiro[4,5]dec-2-ene-3-carboxylic acid cyclopropylmethyl-amide]

Compound: O=C(NCc1cccs1)C1=NOC2(CCN(C(=O)c3ccccc3Cl)CC2)C1 [Example 152, 8-(2-chloro-benzoyl)-1-oxa-2,8-diaza-spiro[4,5]dec-2-ene-3-carboxylic acid (thiophen-2-ylmethyl)-amide]
inhibition at 10 µM (5HT-uptake): 41%

Compound: O=C(Cc1ccc(F)c(F)c1)N1CCN(C(=O)C2=NOC3(CCN(S(=O)(=O)c4cccc(C(F)(F)F)c4)CC3)C2)CC1 [Example 93]
5HT-uptake, 10 μM, % inhibition (5HT-uptake): 42%

Compound: Cc1ccc(S(=O)(=O)N2CCC3(CC2)CC(C(=O)N(CCC#N)Cc2ccccc2)=NO3)cc1 [Example 28, 8-(toluene-4-sulphonyl)-1-oxa-2,8-diaza-spiro[4,5]dec-2-ene-3-carboxylic acid benzyl-(2-cyano-ethyl)-amide]
inhibition at 10 µM (5HT-uptake): 43%

Compound: CC(=O)N1CCC2(CC1)CC(C(=O)NCc1ccccc1)=NO2 [Example 48, 8-acetyl-1-oxa-2,8-diaza-spiro[4,5]dec-2-ene-3-carboxylic acid benzylamide]
inhibition at 10 µM (5HT-uptake): 41%

inhibition at 10 µM (5HT-uptake): 41%
Compound: CN(C)c1cccc(C(=O)N2CCC3(CC2)CC(C(=O)NCCC#N)=NO3)c1 [Example 43, 8-(3-dimethylamino-benzoyl)-1-oxa-2,8-diaza-spiro[4,5]dec-2-ene-3-carboxylic acid (2-cyano-ethyl)-amide]

inhibition at 10 µM (5HT-uptake): 50%
Compound: O=C(NCc1cc(F)ccc1F)C1=NOC2(CCN(S(=O)(=O)c3ccc(Cl)s3)CC2)C1 [Example 49, 8-(5-chloro-thiophene-2-sulphonyl)-1-oxa-2,8-diaza-spiro[4,5]dec-2-ene-3 carboxylic acid 2,5-difluoro-benzylamide]

Compound: Cc1ccc(S(=O)(=O)N2CCC3(CC2)CC(C(=O)NCCN(C)C)=NO3)cc1 [Example 57, 8-(toluene-4-sulphonyl)-1-oxa-2,8-diaza-spiro[4,5]dec-2-ene-3-carboxylic acid (2-dimethylamino-ethyl)-amide]
inhibition at 10 µM (5HT-uptake): 41%

Compound: Cc1cc(C(=O)N2CCC3(CC2)CC(C(=O)NCC(C)C)=NO3)ccc1Br [Example 88, 8-(4-bromo-3-methyl-benzoyl)-1-oxa-2,8-diaza-spiro[4,5]dec-2-ene-3-carboxylic acid isobutyl-amide]
inhibition at 10 µM (5HT-uptake): 46%

Compound: O=C(NC(c1ccccc1)c1ccccc1)C1=NOC2(CCN(S(=O)(=O)c3ccc(Cl)s3)CC2)C1 [Example 40, 8-(5-chloro-thiophene-2-sulphonyl)-1-oxa-2,8-diaza-spiro[4,5]dec-2-ene-3 carboxylic acid benzhydryl-amide]
inhibition at 10 µM (5HT-uptake): 45%

inhibition at 10 µM (5HT-uptake): 40%
Compound: Cc1ccc(C(=O)N2CCC3(CC2)CC(C(=O)NCC2CC2)=NO3)c(F)c1F [Example 159, 8-(2,3-difluoro-4-methyl-benzoyl)-1-oxa-2,8-diaza-spiro[4,5]dec-2-ene-3-carboxylic acid cyclopropylmethyl-amide]
